Experimental data as given in paper PMC8924211 (Nature Communications, 2022).
Changes are numbered by the printed parent chain.

Experiments:
Test in all cases: Calcium assay, HEK293/Gα16 cells, GAL2R mutants
Type in all cases: cell-based
GAL2R mutants [1] = target: T1, GAL2R mutants (Homo sapiens, UniProt O43603, R184A); conditions: GAL2R R1845.35A
T1 construct: expressed in transfected cells; host or cells: HEK293
T1 sequence (O43603 1-387 R184A): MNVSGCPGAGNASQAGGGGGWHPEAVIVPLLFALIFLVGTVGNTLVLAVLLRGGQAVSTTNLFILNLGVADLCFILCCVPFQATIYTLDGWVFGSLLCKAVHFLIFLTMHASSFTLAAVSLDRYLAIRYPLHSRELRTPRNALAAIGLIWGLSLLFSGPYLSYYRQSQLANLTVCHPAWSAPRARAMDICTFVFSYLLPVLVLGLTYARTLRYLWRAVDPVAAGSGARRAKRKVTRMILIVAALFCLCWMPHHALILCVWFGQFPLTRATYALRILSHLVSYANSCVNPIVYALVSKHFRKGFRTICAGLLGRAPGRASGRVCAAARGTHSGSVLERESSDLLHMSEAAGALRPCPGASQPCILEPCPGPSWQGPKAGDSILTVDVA

GAL2R mutants [2] = target: T2, GAL2R mutants (Homo sapiens, UniProt O43603, I256A); conditions: GAL2R I2566.55A
T2 construct: expressed in transfected cells; host or cells: HEK293
T2 sequence (O43603 1-387 I256A): T1 sequence (O43603 1-387 R184A) with A184R, I256A

GAL2R mutants [3] = target: T3, GAL2R mutants (Homo sapiens, UniProt O43603, L255A); conditions: GAL2R L2556.54A
T3 construct: expressed in transfected cells; host or cells: HEK293
T3 sequence (O43603 1-387 L255A): T1 sequence (O43603 1-387 R184A) with A184R, L255A

GAL2R mutants [4] = target: T4, GAL2R mutants (Homo sapiens, UniProt O43603, L169A); conditions: GAL2R L169ECL2A
T4 construct: expressed in transfected cells; host or cells: HEK293
T4 sequence (O43603 1-387 L169A): T1 sequence (O43603 1-387 R184A) with L169A, A184R

GAL2R mutants [5] = target: T5, GAL2R mutants (Homo sapiens, UniProt O43603, Y164A); conditions: GAL2R Y1644.64A
T5 construct: expressed in transfected cells; host or cells: HEK293
T5 sequence (O43603 1-387 Y164A): T1 sequence (O43603 1-387 R184A) with Y164A, A184R

[6] = response of 100 μM spexin compared to WT, mean ± S.E.M.

Emax (GAL2R mutants [1]; [6]): 32.36±1.6%
EC50 (GAL2R mutants [1]; spexin, replicate 1): 0.3712 µM
Emax (GAL2R mutants [1]; spexin, replicate 1): 29.7886%
EC50 (GAL2R mutants [1]; spexin, replicate 2): 0.9731 µM
Emax (GAL2R mutants [1]; spexin, replicate 2): 32.1089%
EC50 (GAL2R mutants [1]; spexin, replicate 3): 10.58 µM
Emax (GAL2R mutants [1]; spexin, replicate 3): 35.1728%
Emax (GAL2R mutants [2]; [6]): 67.24±0.5%
Emax (GAL2R mutants [2]; spexin, replicate 1): 66.4324%
EC50 (GAL2R mutants [2]; spexin, replicate 2): 0.4379 µM
Emax (GAL2R mutants [2]; spexin, replicate 2): 67.278%
EC50 (GAL2R mutants [2]; spexin, replicate 3): 0.9243 µM
Emax (GAL2R mutants [2]; spexin, replicate 3): 68.0243%
Emax (GAL2R mutants [3]; [6]): 26.65±5.9%
Emax (GAL2R mutants [3]; spexin, replicate 1): 16.7892%
EC50 (GAL2R mutants [3]; spexin, replicate 2): 0.2454 µM
Emax (GAL2R mutants [3]; spexin, replicate 2): 26.0726%
EC50 (GAL2R mutants [3]; spexin, replicate 3): 0.8451 µM
Emax (GAL2R mutants [3]; spexin, replicate 3): 37.0775%
Emax (GAL2R mutants [4]; [6]): 94.58±11.1%
EC50 (GAL2R mutants [4]; spexin, replicate 1): 7.173 µM
Emax (GAL2R mutants [4]; spexin, replicate 1): 77.1819%
EC50 (GAL2R mutants [4]; spexin, replicate 2): 5.137 µM
Emax (GAL2R mutants [4]; spexin, replicate 2): 91.205%
Emax (GAL2R mutants [4]; spexin, replicate 3): 115.35%
Emax (GAL2R mutants [5]; spexin, replicate 1): no response
Emax (GAL2R mutants [5]; spexin, replicate 2): no response
Emax (GAL2R mutants [5]; spexin, replicate 3): no response
Substance: spexin
Emax (GAL2R mutants [5]; response of 100 μM spexin compared to WT): NR (NR, no response, refers to response < 10% compared to WT receptor (spexin at 100 μM))
